Assay results published in PubChem BioAssay (NCI).
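Method: 48-hour compound exposure of cells in 96-well plates, five concentrations, linear interpolation of endpoints. GI50: concentration for 50% inhibition of growth. TGI denotes the concentration required for complete inhibition of growth.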

How the values were obtained:
Assay in all cases: NCI anticancer screen, dose series, 48 h
HOP-92 NSCLC = tested on: HOP-92 NSCLC
UO-31 renal = tested on: UO-31 renal
SNB-19 CNS = tested on: SNB-19 CNS
SK-MEL-5 melanoma = tested on: SK-MEL-5 melanoma
KM12 colon = tested on: KM12 colon
SK-OV-3 ovarian = tested on: SK-OV-3 ovarian
MOLT-4 leukemia = tested on: MOLT-4 leukemia
U251 CNS = tested on: U251 CNS
TK-10 renal = tested on: TK-10 renal
NCI-H226 lung = tested on: NCI-H226 lung

| SMILES | GI50 (HOP-92 NSCLC) | TGI (HOP-92 NSCLC) | GI50 (UO-31 renal) | TGI (UO-31 renal) | GI50 (SNB-19 CNS) | TGI (SNB-19 CNS) | GI50 (SK-MEL-5 melanoma) | TGI (SK-MEL-5 melanoma) | GI50 (KM12 colon) | TGI (KM12 colon) | GI50 (SK-OV-3 ovarian) | TGI (SK-OV-3 ovarian) | GI50 (MOLT-4 leukemia) | TGI (MOLT-4 leukemia) | GI50 (U251 CNS) | TGI (U251 CNS) | GI50 (TK-10 renal) | TGI (TK-10 renal) | GI50 (NCI-H226 lung) | TGI (NCI-H226 lung) |
| --- | --- | --- | --- | --- | --- | --- | --- | --- | --- | --- | --- | --- | --- | --- | --- | --- | --- | --- | --- | --- |
| CC(=O)[O-].O=C([CH-]C(=O)c1ccccc1)c1ccccc1.O=C([CH-]C(=O)c1ccccc1)c1ccccc1.[Y+3] | 4.04 µM | 18.9 µM | 3.84 µM | 9.66 µM | 6.17 µM | 64.7 µM | 3.56 µM | 14.2 µM | 4.36 µM | 24.5 µM | 8.31 µM | 37.1 µM | 2.91 µM | 32.3 µM | 3.91 µM | 31.5 µM | 8.27 µM | 66.5 µM | 2.56 µM | 9.69 µM |
| COc1ccc2c(c1)[n+](=O)c(C(=O)/C=C/c1cc(OC)c(OC)c(OC)c1)c(C)n2[O-] | 12.3 µM | 30.8 µM | 28 µM | 78.6 µM | 14.1 µM | 36.5 µM | 40.4 µM | > 100 µM | > 100 µM | > 100 µM | 21.3 µM | 51.7 µM | > 100 µM | > 100 µM | 9.87 µM | 22.4 µM | 18.9 µM | 36 µM | 26.3 µM | 82.4 µM |
| COc1ccc(C(=O)c2cc3c(N)c(C(=O)Nc4cccc(Cl)c4C)sc3nc2C)cc1 | 0.292 µM | 6.67 µM | 0.634 µM | > 25 µM | 0.117 µM | > 25 µM | 0.109 µM | 2.45 µM | 0.106 µM | > 25 µM | 0.161 µM | > 25 µM | 0.153 µM | > 25 µM | 0.104 µM | > 25 µM | > 25 µM | > 25 µM | 0.277 µM | > 25 µM |
| COc1ccc(-c2cc(-c3cc(OC)c(OC)c(OC)c3)c(C#N)c(N3CCOCC3)n2)cc1O | 5.67 µM | > 100 µM | 11.1 µM | > 100 µM | 5.33 µM | > 100 µM | 3.3 µM | > 75.2 µM | 3.06 µM | > 100 µM | 14.8 µM | > 100 µM | 4.36 µM | > 100 µM | 3.4 µM | > 94.1 µM | > 59.8 µM | > 100 µM | > 100 µM | > 100 µM |
| CCc1nc(N)nc(N)c1-c1ccc(NCCc2ccccc2)c([N+](=O)[O-])c1 |  | 35.7 µM |  | > 51.4 µM |  | > 63.1 µM |  | 10.1 µM |  | > 57 µM |  | > 74.6 µM |  | 33.3 µM |  | 47.3 µM |  | > 69.7 µM |  | > 69.7 µM |
| O=[N+]([O-])c1ccc(Sc2c3ccccc3nc3ccccc23)nc1 |  | 6.79 µM |  | 12.4 µM |  | 40.5 µM |  | 30.7 µM |  | 44.5 µM |  | 17.7 µM |  | 8.99 µM |  | 46.3 µM |  | 6.84 µM |  | 35.8 µM |
| CCCCCCCCCCCCOC1C(CNC(=O)C2OC3OC(C)(C)OC3C2NC(=O)CN2CCCCCC2)OC2OC(C)(C)OC21 (stereo not given) | 9.4 µM | 22.8 µM | 6.22 µM | 18 µM | 10.3 µM | 23.8 µM | 1.85 µM | 3.41 µM | 5.44 µM | 19.1 µM | 16.2 µM | 30.8 µM | 3.12 µM | 9.85 µM | 4.91 µM | 15.9 µM | 8.27 µM | 22.5 µM | 16.7 µM | 38.1 µM |
| O=C(NCCCCCCCCNC(=O)c1cccc2ccccc12)c1cccc2ccccc12 |  | 20.4 µM |  | 27.4 µM |  | > 59.5 µM |  | > 100 µM |  | > 100 µM |  | 41.6 µM |  | > 100 µM |  | 45.6 µM |  | 43.3 µM |  | 22.8 µM |
| CSc1ccc(/C=C/c2ccnc3ccccc23)cc1 |  | 30.2 µM |  | 26.5 µM |  | 34 µM |  | 18.9 µM |  | > 100 µM |  | 33.3 µM |  | 66.9 µM |  | 25.4 µM |  | 26.8 µM |  | 29 µM |
| COc1ccc(Cn2cc3c(c2-c2cc(OC)c(OC)c(OC)c2)CCc2cnoc2-3)cc1[N+](=O)[O-] | 1.07 µM | 60.6 µM | 1.26 µM | > 100 µM | 1.87 µM | > 100 µM | 0.45 µM | > 71.6 µM | 0.583 µM | > 93.7 µM | 1.08 µM | > 30.2 µM | 1.4 µM | > 100 µM | 1.2 µM | > 100 µM | 3.57 µM | > 84.3 µM | 4.33 µM | > 100 µM |
| COc1cnc2c(c1)C(=O)c1c-2n(CCCN2CCCC2)c(=O)c2cc(F)ccc12 | 0.531 µM | 7.8 µM | 0.152 µM | 1.04 µM | 0.24 µM | 2.74 µM | 0.309 µM | 1.29 µM | 0.284 µM | 4.73 µM | 0.272 µM | 0.986 µM | 0.0591 µM | 0.414 µM | 0.116 µM | 0.467 µM | 0.46 µM | 2.13 µM | 0.164 µM | 0.382 µM |
| CN(CCCl)c1ccc(/C=C/C2=[N+](C)c3ccccc3C2(C)C)cc1 | 0.288 µM | 2.2 µM | 4.39 µM | 17.4 µM | 0.495 µM | 15.5 µM | 0.532 µM | 2.03 µM | 0.355 µM | 1.55 µM | 0.713 µM | 5.41 µM | 0.308 µM | 1.4 µM | 0.253 µM | 11.2 µM | 2.37 µM | 14.9 µM | 1.21 µM | 14.9 µM |
| CCOC(=O)NC(=O)c1cn(CCN2CCN(C(=O)CCCCCCCCCCNc3ncnc4nc[nH]c34)CC2)c(=O)[nH]c1=O |  | > 100 µM |  | > 100 µM |  | > 100 µM |  | > 100 µM |  | > 100 µM |  | > 100 µM |  | > 100 µM |  | > 100 µM |  | > 100 µM |  | > 100 µM |
| Cc1ccc(S(=O)(=O)Cc2nc(-c3ccc(C(=O)NCc4cccnc4)cc3)oc2C)cc1 | 13 µM | > 100 µM | 23.7 µM | > 100 µM | 0.0869 µM | > 100 µM | 2.85 µM | > 100 µM | 0.266 µM | > 100 µM | 14.5 µM | > 100 µM | 0.595 µM | > 100 µM | 1.01 µM | > 76.7 µM | > 67.8 µM | > 100 µM | > 100 µM | > 100 µM |
| CCCCCC/C=C\CCCCCCCCCC1=CC(=O)C=C(OC)C1=O |  | 8.05 µM |  | 14 µM |  | 20.1 µM |  | 5.54 µM |  | 19.2 µM |  | 16 µM |  | > 100 µM |  | 13.6 µM |  | 18.8 µM |  | 11.1 µM |
| N[C@@H]1CCCN(c2c(/C=C3\SC(=O)NC3=O)cccc2-c2ccccc2)C1 | 3.17 µM | 20.1 µM | 12.7 µM | 27.3 µM | 2.93 µM | 13.2 µM | 11.2 µM | 23.6 µM | 14.2 µM | 28.9 µM | 15.5 µM | 35 µM | 14.7 µM | 45.6 µM | 3.3 µM | 15.3 µM | 13.6 µM | 26.8 µM | 12.8 µM | 36.9 µM |
